Experimental data taken from ChEMBL document CHEMBL5500371, “Arginine and tryptophan-rich dendritic antimicrobial peptides that disrupt membranes for bacterial infection in vivo” (Eur J Med Chem, 2024).
Calls of active or inactive are those of the source. The rule behind the calls is not given here. Where a SMILES comes first, the peptide text is derived from it. Side-chain parts run from the residue outwards.

Columns and labels:
[1] = system: Escherichia coli; test: Synergistic antibacterial activity against Escherichia coli ATCC 25922 assessed as fractional inhibitory concentration index at 0.25 to 4 times MIC incubated for 20 hrs in presence of kanamycin by checkerboard assay; format: functional
[2] = system: Staphylococcus aureus; test: Antibacterial activity against Staphylococcus aureus ATCC 25923 assessed as inhibition of bacterial growth incubated for 20 hrs in presence of FeCl3 by broth microdilution method (reference value: 16 microM); format: functional
[3] = system: Staphylococcus aureus; test: Antibacterial activity against Staphylococcus aureus ATCC 25923 assessed as inhibition of bacterial growth incubated for 20 hrs in presence of MgCl2 by broth microdilution method (reference value: 16 microM); format: functional
[4] = system: Staphylococcus aureus; test: Antibacterial activity against Staphylococcus aureus ATCC 25923 assessed as inhibition of bacterial growth incubated for 20 hrs in presence of NaCl by broth microdilution method (reference value: 16 microM); format: functional
[5] = system: Staphylococcus aureus; test: Antibacterial activity against Staphylococcus aureus ATCC 25923 assessed as inhibition of bacterial growth incubated for 20 hrs in presence of KCl by broth microdilution method (reference value: 16 microM); format: functional
[6] = system: Staphylococcus aureus; test: Antibacterial activity against Staphylococcus aureus ATCC 25923 assessed as inhibition of bacterial growth incubated for 20 hrs in presence of ZnCl2 by broth microdilution method (reference value: 16 microM); format: functional
[7] = system: Staphylococcus aureus; test: Synergistic antibacterial activity against rifampicin resistant Staphylococcus aureus ATCC 25923 assessed as fractional inhibitory concentration index at 0.25 to 4 times MIC incubated for 20 hrs in presence of rifampicin by checkerboard assay; format: functional
[8] = system: Escherichia coli; test: […] activity against Escherichia coli ATCC 25922 infected in male BALB/c pulmonary infection model assessed as reduction in liver hemorrhage at 5 to 10 mg/kg, ip administered at 3 and 12 hrs post infection and measured 24 hrs post infection by H and E staining based analysis; format: functional, organism-based; settings: dose 5-10 mg/kg, time 12-21 hrs
[9] = system: Escherichia coli; test: Drug resistance, ratio of MIC for Escherichia coli after 20 passages to MIC for Escherichia coli after initial exposure; format: functional
[10] = system: Cell membrane; test: Induction of cytoplasmic membrane depolarization in Staphylococcus aureus assessed as increase in fluorescence intensity at >1 times MIC measured within 1 min by DISC3-5 dye based fluorescence analysis
[11] = system: Cell membrane; test: Disruption of cell membrane morphology in Staphylococcus aureus assessed as breakage of cell membrane at 2 times MIC measured after 0.5 to 2 hrs by SEM analysis; format: cell membranes; settings: time 0.5-2 hrs
[12] = system: Cell membrane; test: Induction of outer membrane permeabilization in Escherichia coli assessed as increase in fluorescence intensity at 0.5 to 4 times MIC measured for 12 mins by NPN dye based assay
[13] = system: Escherichia coli; test: Antibiofilm activity against Escherichia coli ATCC 25922 assessed as inhibition of biofilm formation at 0.5 to 4 times MIC measured after 24 hrs by crystal violet staining based analysis; format: functional, organism-based
[14] = system: Cell membrane; test: Disruption of cell membrane morphology in Escherichia coli assessed as breakage of cell membrane at 2 times MIC measured after 0.5 to 2 hrs by SEM analysis; format: cell membranes; settings: time 0.5-2 hrs
[15] = system: Escherichia coli; test: Synergistic antibacterial activity against Escherichia coli ATCC 25922 assessed as fractional inhibitory concentration index at 0.25 to 4 times MIC incubated for 20 hrs in presence of polymyxin B by checkerboard assay; format: functional
[16] = system: Staphylococcus aureus; test: Drug resistance, ratio of MIC for Staphylococcus aureus after 20 passages to MIC for Staphylococcus aureus after initial exposure; format: functional
[17] = system: Staphylococcus aureus; test: Synergistic antibacterial activity against Staphylococcus aureus ATCC 25923 assessed as fractional inhibitory concentration index at 0.25 to 4 times MIC incubated for 20 hrs in presence of rifampicin by checkerboard assay; format: functional
[18] = system: Staphylococcus aureus; test: Resistant development in Staphylococcus aureus assessed as increase in MIC at sub-MIC in presence of rifampicin measured after 20 passages; format: functional, organism-based
[19] = Acute toxicity in ip dosed male BALB/c mouse administered as single dose; format: organism-based; settings: male, BALB/c, in vivo, read-out: LD50
[20] = Cytotoxicity against HEK293T cells assessed as cell death measured after 1 hr by resazurin dye based analysis; format: toxicity, HEK-293T; settings: human, HEK293T cells
[21] = system: Lipopolysaccharide (LPS); test: Binding affinity to LPS (unknown origin) assessed as reduction in bacterial mortality at 2 times MIC preincubated with LPS for 1 hr followed by bacteria addition and measured after 18 hrs by microplate reader analysis; format: subcellular; settings: time 19.0 hrs
[22] = system: Cell membrane; test: Disruption of cell membrane morphology in Staphylococcus aureus assessed as partial creasing in bacterial membrane at 2 times MIC measured after 0.5 to 2 hrs by SEM analysis; format: cell membranes; settings: time 0.5-2 hrs
[23] = Acute toxicity in male BALB/c mouse assessed as loss of appetite at 80 to 130 mg/kg, ip administered as single dose and measured after 3 days; format: organism-based; settings: in vivo, 72 h, dose 80-130 mg/kg, time 3 day
[24] = system: Cell membrane; test: Induction of inner membrane permeabilization in Escherichia coli ML-35 ATCC 43837 at 0.5 to 4 times MIC by ONPG reagent based microplate reader analysis; settings: time 0-135 min, TDE = time-dependent effect
[25] = Hemolytic activity in mouse erythrocytes at 256 uM preincubated for 1 to 6 hr with 10% mouse serum and measured after 1 hr by absorbance based analysis; format: toxicity, cell-based, Erythrocyte; settings: time 1-7 hrs, read-out: Activity
[26] = system: Cell membrane; test: Disruption of cell membrane morphology in Escherichia coli assessed as partial creasing in bacterial membrane at 2 times MIC measured after 0.5 to 2 hrs by SEM analysis; format: cell membranes; settings: time 0.5-2 hrs
[27] = system: Escherichia coli; test: Resistant development in Escherichia coli assessed as increase in MIC at sub-MIC in presence of gentamicin measured after 20 passages; format: functional, organism-based
[28] = Therapeutic index, ratio of MHC10 for hemolytic activity in mouse erythrocytes preincubated with 10% mouse serum for 1 hr to MIC for Staphylococcus aureus ATCC 25923 preincubated with 10% mouse serum for 1 hr; format: toxicity, cell-based; settings: mouse erythrocytes, read-out: TI
[29] = Therapeutic index, ratio of MHC10 for hemolytic activity in mouse erythrocytes preincubated with 10% mouse serum for 6 hrs to MIC for Escherichia coli ATCC 25922 preincubated with 10% mouse serum for 6 hrs; format: toxicity, cell-based; settings: mouse erythrocytes, read-out: TI
[30] = system: Escherichia coli; test: Resistant development in Escherichia coli assessed as increase in MIC at sub-MIC in presence of rifampicin measured after 20 passages; format: functional, organism-based
[31] = system: Cell membrane; test: Induction of cell membrane damage in Escherichia coli assessed as increase in PI uptake at 2 times MIC measured after 2 hrs by PI dye based flow cytometry analysis; format: cell membranes
[32] = system: Cell membrane; test: Induction of inner membrane permeabilization in Escherichia coli ML-35 ATCC 43837 at 0.5 to 4 times MIC measured every 5 mins over 135 mins by ONPG reagent based microplate reader analysis
[33] = system: Cell membrane; test: Disruption of cell membrane morphology in Staphylococcus aureus assessed as release of cellular contents at 2 times MIC measured after 0.5 to 2 hrs by SEM analysis; format: cell membranes; settings: time 0.5-2 hrs
[34] = system: Cell membrane; test: Induction of cell membrane damage in Escherichia coli assessed as PI uptake at 2 times MIC measured after 0.5 hrs by PI dye based flow cytometry analysis (reference value: 18.1%); format: cell membranes
[35] = system: Cell membrane; test: Induction of cell membrane damage in Staphylococcus aureus assessed as increase in PI uptake at 2 times MIC measured after 2 hrs by PI dye based flow cytometry analysis; format: cell membranes

Row | Molecule | fractional inhibitory concentration index (FICI) [1] | MIC [2] [µM] | MIC [3] [µM] | MIC [4] [µM] | MIC [5] [µM] | MIC [6] [µM] | fractional inhibitory concentration index (FICI) [7] | Activity [8] | Ratio [9] | Activity [10] | Activity [11] | Activity [12] | Activity [13] | Activity [14] | fractional inhibitory concentration index (FICI) [15] | Ratio [16] | fractional inhibitory concentration index (FICI) [17] | Activity [18] | LD50 [19] [mg/kg] | CC50 at 1 h [20] [µM] | other results
1 | POLYMYXIN B | 0.5 | 16 | 16 | 64 | 16 | 16 | 0.5 |  |  |  |  |  |  |  |  |  |  |  |  |  | 
2 | N=C(N)NCCC[C@H](NC(=O)[C@@H](N)CCCNC(=N)N)C(=O)NCCCC[C@H](NC(=O)[C@H](CCCNC(=N)N)NC(=O)[C@@H](N)CCCNC(=N)N)C(=O)N[C@@H](Cc1c[nH]c2ccccc12)C(=O)N[C@@H](Cc1c[nH]c2ccccc12)C(=O)N[C@@H](Cc1c[nH]c2ccccc12)C(=O)N[C@@H](Cc1c[nH]c2ccccc12)C(N)=O (H-RRK([Arg-Arg])WWWW-NH2) |  | 8 | 8 | 16 | 8 | 16 |  | Active | <=2 | Active | Active | Dose-Dependent Effect | Dose-Dependent Effect | Active | 0.5 | <=2 | 0.375 | inactive | 109 | > 128 | Activity [21]: Active; Activity [22]: Active; Activity [23]: Toxic; Activity [24]: Tde; hemolysis at 1 h, 256 µM [25]: < 10%; Activity [26]: Active; Activity [27]: inactive; selectivity ratio [28]: 1; selectivity ratio [29]: 0.5; Activity [30]: inactive; Activity [31]: inactive; Activity [32]: Dose-Dependent Effect; Activity [33]: Active; Activity [34]: > 80%; Activity [35]: inactive
3 | N=C(N)NCCC[C@H](NC(=O)[C@H](CCCNC(=N)N)NC(=O)[C@H](CCCNC(=N)N)NC(=O)[C@@H](N)CCCNC(=N)N)C(=O)N[C@@H](CCCCN)C(=O)N[C@@H](Cc1c[nH]c2ccccc12)C(=O)N[C@@H](Cc1c[nH]c2ccccc12)C(=O)N[C@@H](Cc1c[nH]c2ccccc12)C(=O)N[C@@H](Cc1c[nH]c2ccccc12)C(N)=O | 0.5 |  |  |  |  |  | 0.5 | Active | <=2 | Active | Active | Dose-Dependent Effect | Dose-Dependent Effect | Active | 0.5 | <=2 | 0.375 | inactive | 105 | > 128 | Activity [21]: Active; Activity [22]: Active; Activity [23]: Toxic; Activity [24]: Tde; hemolysis at 1 h, 256 µM [25]: < 10%; Activity [26]: Active; Activity [27]: inactive; selectivity ratio [28]: 0.5; selectivity ratio [29]: 0.25; Activity [30]: inactive; Activity [31]: inactive; Activity [32]: Dose-Dependent Effect; Activity [33]: Active; Activity [34]: > 80%; Activity [35]: inactive
